Assay results taken from article PMC11472328, “Targeting Plasmodium falciparum IspD in the Methyl-D-erythritol Phosphate Pathway: Urea-Based Compounds with Nanomolar Potency on Target and Low-Micromolar Whole-Cell Activity” (Journal of Medicinal Chemistry, 2024).
≈ marks a conversion by molar mass, not a printed value. Where two headings read alike, the source gives them in different places.

What was measured:
PfIspD [1] = target: T1, PfIspD (Plasmodium falciparum, UniProt Q8I273); assay: Photometric in vitro PfIspD assay; type: biochemical; conditions: mean ± SD, n ≥ 2; n.a. = absence of activity
T1 sequence (Q8I273 1-734): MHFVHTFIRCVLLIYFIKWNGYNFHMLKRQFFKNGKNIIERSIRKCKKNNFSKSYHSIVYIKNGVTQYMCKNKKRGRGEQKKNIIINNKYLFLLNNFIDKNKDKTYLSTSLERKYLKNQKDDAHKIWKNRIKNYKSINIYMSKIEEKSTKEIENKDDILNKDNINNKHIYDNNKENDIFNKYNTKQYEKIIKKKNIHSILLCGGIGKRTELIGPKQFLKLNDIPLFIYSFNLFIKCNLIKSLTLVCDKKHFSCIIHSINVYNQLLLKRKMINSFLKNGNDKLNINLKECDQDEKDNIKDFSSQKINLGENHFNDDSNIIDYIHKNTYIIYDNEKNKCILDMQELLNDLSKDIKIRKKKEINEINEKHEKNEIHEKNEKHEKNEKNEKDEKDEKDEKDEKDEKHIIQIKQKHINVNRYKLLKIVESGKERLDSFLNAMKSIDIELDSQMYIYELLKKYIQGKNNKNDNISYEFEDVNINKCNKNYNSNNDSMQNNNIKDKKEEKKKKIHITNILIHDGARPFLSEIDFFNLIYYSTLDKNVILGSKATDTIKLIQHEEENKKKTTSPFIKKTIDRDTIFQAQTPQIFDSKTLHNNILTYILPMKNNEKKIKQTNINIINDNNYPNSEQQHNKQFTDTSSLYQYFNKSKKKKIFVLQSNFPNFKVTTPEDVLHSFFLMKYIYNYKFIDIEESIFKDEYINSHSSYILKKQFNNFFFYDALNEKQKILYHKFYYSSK
Protocol: Dilution series (1:2) of inhibitors in DMSO covered the concentration range of approximately 200–0.01 μM. After finishing the dilution series, the final volume of compound solution in DMSO per well was 3 μL. For the IspD assay, 30 μL aliquots of a solution containing 100 mM Tris-HCl, pH 7.6, 0.02% NaN3, 1 mM MEP and 1 mM CTP were added to microplate wells preloaded with 3 μL of DMSO containing test compounds. […] Initial rates were estimated using Softmax Pro 6.1 software (Molecular Devices, Biberach an der Riss, Germany). IC50 values were determined with a nonlinear regression method using the program Dynafit.[21]

PfIspD [2] = target: T1, PfIspD; assay: Determination of enzyme kinetics, LC-MS based IspD assay; type: biochemical; conditions: our results, n = 2, mean ± SD; read-out: Km^CTP
Protocol: (§1) A volume of 80 μL Buffer A containing 100 mM Tris-HCl pH 7.6, 1 mM DTT, 1 mM MgCl2, 50 nM PfIspD were added to well A1 96-well plate while 50 μL were added to the rest of the wells. A volume of 20 μL of 10 mM CTP was added to the first well, then a serial dilution was conducted by moving 50 μL. To start the reaction, we then added on buffer A 50 μL of Buffer B containing 100 mM Tris-HCl pH 7.6, 1 mM DTT, and 1 mM MEP. The assay plate was incubated at 37 °C for 40 min, after which, the protein was denaturated by heating up the plate to 95 °C for 5 min. The plate was then centrifuged at 4000 rpm at 4 °C for 5 min to precipitate the protein. […] Thereafter, 10 μL of each of the supernatants from the assay plate were added to the plate containing the mixture with our internal standard. The plate was centrifuged again at 4000 rpm at 4 °C for 5 min, after which, 50 μL of the supernatant was transferred to an LC-MS plate and closed with a silicon cover. LC-MS conditions and data analysis methods we used were described above. The peak area for each conditions were used to calculate the Michaelis–Menten kinetic parameters using Graphpad Prism v 9. Measurements were performed in duplicates, repeated at least two times from two to three independent experiments.

IspD = conditions: cited from earlier work
PfNF54 = assay: Whole-cell assay, [3H]-hypoxanthine incorporation; type: cell-based, Plasmodium falciparum; conditions: mean ± SD, n.a. = absence of activity
Protocol: After incubation for 48 h, 0.25 μCi of [^3H]-hypoxanthine was added per well and plates were incubated for an additional 24 h.

E. coli K12 = assay: Growth inhibition of E. coli K12; type: cell-based; conditions: Escherichia coli
PK-LDH = assay: Activity against auxiliary enzymes PK-LDH; type: biochemical
EcIspE = EcIspE (Escherichia coli, UniProt P62615); assay: Activity against auxiliary enzyme EcIspE; type: biochemical
[3] = test system: Mtb H37Rv mCherry 10 strain; assay: MIC 90 against Mtb H37Rv mCherry 10 strain; type: cell-based; conditions: Mycobacterium tuberculosis, read-out: MIC 90 (growth inhibition) of Mtb H37Rv mCherry 10 strain
[4] = test system: Pf3D7 (WT) and MMV008138 resistant parasites (R2 and R3); assay: IDP rescue assay; type: cell-based, Plasmodium falciparum; conditions: 200 μM IDP, 72 h
Protocol: The parasite growth was quantified by measuring DNA content using PicoGreen assay (Invitrogen). IC50 values were calculated by nonlinear regression analysis using GraphPad Prism software and reflect the mean ± standard error of the mean (SEM) from at least three independent experiments. Statistical comparison of the values was done via one-way ANOVA.

malaria = test system: malaria; design: method as in Fernandes et al. [6]−[8]; conditions: children, combination therapy, meta-analysis ref Fernandes et al. [6]−[8]; cited from earlier work
[5] = substrate: C[C@](O)(CO)[C@H](O)COP(=O)(O)O; assay: Determination of enzyme kinetics, LC-MS based IspD assay; type: biochemical, Plasmodium falciparum; conditions: other: our results, n = 2, mean ± SD; pH 7.6
Protocol: as §1

Chain of EcIspE (P62615 whole entry): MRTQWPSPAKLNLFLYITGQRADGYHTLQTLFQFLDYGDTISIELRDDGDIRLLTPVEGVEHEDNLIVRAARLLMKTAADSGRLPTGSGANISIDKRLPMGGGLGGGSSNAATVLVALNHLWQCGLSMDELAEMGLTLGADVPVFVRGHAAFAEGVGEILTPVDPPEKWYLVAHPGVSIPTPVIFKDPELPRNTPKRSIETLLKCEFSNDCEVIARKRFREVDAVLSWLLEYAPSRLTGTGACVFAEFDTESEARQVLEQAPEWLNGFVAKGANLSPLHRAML

Molecule: 1-(4-Methyl-3-(morpholinosulfonyl)phenyl)-3-(4-nitrophenyl)urea [Compound 33]
- IC50 (PfIspD [1]): > 10000 nM

Molecule: Nc1ccn([C@@H]2O[C@H](COP(=O)(O)OP(=O)(O)OP(=O)(O)O)[C@@H](O)[C@H]2O)c(=O)n1 [CTP, cytidine triphosphate]
- Km (PfIspD [2]): 58 ± 9 µM
- Km (IspD; ref Ghavami et al.[18], read-out: Km^CTP): 9 ± 3 µM
- Km (IspD; ref Imlay et al.[12], read-out: Km^CTP): 59 ± 4 µM

Molecule: Nc1ccc(NC(=O)Nc2cccc(S(=O)(=O)N3CCCC3)c2)cc1 [Compound 4, 1-(4-Aminophenyl)-3-(3-(pyrrolidin-1-ylsulfonyl)phenyl)urea]
- PfNF54 (IC50 μM) (PfNF54): lacking whole-cell activity

Molecule: O=C(Nc1ccc(Cl)cc1)Nc1cccc(S(=O)(=O)N2CCCC2)c1 [Compound 5, 1-(4-Chlorophenyl)-3-(3-(pyrrolidin-1-ylsulfonyl)phenyl)urea]
- inhibition at 100 µM (E. coli K12): 45 ± 6%

Molecule: COC(=O)c1ccc(NC(=O)Nc2cccc(S(=O)(=O)N3CCCC3)c2)cc1 [Compound 7, Methyl 4-(3-(3-(Pyrrolidin-1-ylsulfonyl)phenyl)ureido)benzoate]
- IC50 (PK-LDH): 242 ± 72 µM
- IC50 (EcIspE): > 500 µM

Molecule: O=C(Nc1ccc([N+](=O)[O-])cc1)Nc1cccc(S(=O)(=O)N2CCCC2)c1 [Compound 8, 1-(4-Nitrophenyl)-3-(3-(pyrrolidin-1-ylsulfonyl)phenyl)urea]
- inhibition at 100 µM (E. coli K12): 14 ± 5%

Molecule: CS(=O)(=O)c1ccc(NC(=O)Nc2cccc(S(=O)(=O)N3CCCC3)c2)cc1 [Compound 9, 1-(4-(Methylsulfonyl)phenyl)-3-(3-(pyrrolidin-1-ylsulfonyl)phenyl)urea]
- IC50 (PK-LDH): > 500 µM
- IC50 (EcIspE): > 500 µM

Molecule: N#Cc1ccc(NC(=O)Nc2cccc(S(=O)(=O)N3CCCC3)c2)cc1 [Compound 10, 1-(4-Cyanophenyl)-3-(3-(pyrrolidin-1-ylsulfonyl)phenyl)urea]
- MIC90 [3]: 64 µM (≈ 23.7 µg/mL)
- effect of IDP supplementation on sensitivity [4]: equalized the sensitivity of the resistant strains and the wild type
- inhibition at 100 µM (E. coli K12): 46 ± 4%

Molecule: O=C(Nc1ccc(C(F)(F)F)cc1)Nc1cccc(S(=O)(=O)N2CCCC2)c1 [Compound 11, 1-(3-(Pyrrolidin-1-ylsulfonyl)phenyl)-3-(4-(trifluoromethyl)phenyl)urea]
- IC50 (PK-LDH): 73 ± 15 µM
- IC50 (EcIspE; auxiliary enzyme, read-out: EcIspE (IC50 µM)): 73 ± 15 µM

Molecule: O=C(Nc1ccc([N+](=O)[O-])cc1)Nc1cccc(S(=O)(=O)N2CCCCC2)c1 [Compound 26, 1-(4-Nitrophenyl)-3-(3-(piperidin-1-ylsulfonyl)phenyl)urea]
- IC50 (PK-LDH): > 500 µM
- IC50 (EcIspE): 49 ± 7 µM

Molecule: O=C(Nc1ccc([N+](=O)[O-])cc1)Nc1cccc(S(=O)(=O)N2CCOCC2)c1 [Compound 27, 1-(3-(Morpholinosulfonyl)phenyl)-3-(4-nitrophenyl)urea]
- IC50 (PK-LDH): 104 ± 19 µM
- IC50 (EcIspE): > 500 µM

Molecule: O=C(Nc1ccc([N+](=O)[O-])cc1)Nc1ccc(F)c(S(=O)(=O)N2CCOCC2)c1 [Compound 31, 1-(4-Fluoro-3-(morpholinosulfonyl)phenyl)-3-(4-nitrophenyl)urea]
- IC50 (PK-LDH): > 500 µM
- IC50 (EcIspE): 75 ± 11 µM

Molecule: C[C@](O)(CO)[C@H](O)COP(=O)(O)O [MEP, 2-C-methylerythritol-D-erythritol-4-phosphate]
- Km (IspD; ref Ghavami et al.[18], read-out: Km^MEP): 12 ± 3 µM
- Km (IspD; ref Wu et al.[14], read-out: Km^MEP): 61 µM

Molecule: O=CN(O)CCCP(=O)(O)O [fosmidomycin]
- cure rate (malaria): 85%

B1: PfIspD (Plasmodium falciparum 3D7) (protein)
chain: T1 sequence (Q8I273 1-734)
- Km [5]: 46 ± 3 µM
